Reference: patent US6706663B2, “Herbicidal 3-heterocyclic substituted benzisothiazole and benzisoxazole compounds” (Wyeth, priority 2000, dated 2004)

Key:
[1] = tested on: ABUTH (Abutilon theophrasti); assay: Postemergence herbicidal evaluation; format: in vivo, Medic.
How it was run: (§1)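 Visual 0–9 injury scores versus control plants, covering stand, vigour, malformation, size, chlorosis and general appearance, taken four to five weeks post-spray and averaged over replicate tests. Plants were sprayed at roughly two weeks old and held on greenhouse benches.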

[2] = tested on: AMBEL (Ambrosia artemisifolia); assay: Postemergence herbicidal evaluation; format: in vivo, L.
How it was run: as §1

[3] = tested on: CASOB (Cassia obtusifolia); assay: Postemergence herbicidal evaluation; format: in vivo, L.
How it was run: as §1

[4] = tested on: CHEAL (Chenopodium album); assay: Postemergence herbicidal evaluation; format: in vivo, L.
How it was run: as §1

GALAP (Galium aparine) [5] = assay: Postemergence herbicidal evaluation; format: in vivo
How it was run: as §1

[6] = tested on: IPOHE (Ipomoea hederacea); assay: Postemergence herbicidal evaluation; format: in vivo, (L.) Jacq.
How it was run: as §1

[7] = tested on: ECHCG (Echinochloa crus-galli); assay: Postemergence herbicidal evaluation; format: in vivo, (L.) Beau
How it was run: as §1

[8] = tested on: GLXMAW (Soybean, Williams); assay: Postemergence herbicidal evaluation; format: in vivo, Glycine max, (L.) Merr. cv Williams
How it was run: as §1

ZEAMX (Corn, Field) [9] = assay: Postemergence herbicidal evaluation; format: in vivo, Zea mays, L.
How it was run: as §1

[10] = tested on: AMBEL (Ambrosia artemisifolia); assay: Preemergence herbicidal evaluation; format: in vivo, L.; settings: rated 4-5 weeks after treatment
How it was run: (§2)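 Preemergence soil spray, aq. acetone; greenhouse; visual 0–9 score vs control at 4–5 wk.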

[11] = tested on: CASOB (Cassia obtusifolia); assay: Preemergence herbicidal evaluation; format: in vivo, L.; settings: preemergence, rated 4-5 weeks after treatment
How it was run: as §2

[12] = tested on: CHEAL (Chenopodium album); assay: Preemergence herbicidal evaluation; format: in vivo, L.; settings: rated 4-5 weeks after treatment
How it was run: as §2

GALAP (Galium aparine) [13] = assay: Preemergence herbicidal evaluation; format: in vivo; settings: rated 4-5 weeks after treatment
How it was run: as §2

[14] = tested on: IPOHE (Ipomoea hederacea); assay: Preemergence herbicidal evaluation; format: in vivo, (L.) Jacq.; settings: rated 4-5 weeks after treatment
[15] = tested on: GLXMAW (Soybean, Williams); assay: Preemergence herbicidal evaluation; format: in vivo, Glycine max, (L.) Merr. cv Williams; settings: rated 4-5 weeks after treatment
ORYSAT (Rice, Tebonnet) = assay: Preemergence herbicidal evaluation; format: in vivo, Oryza sativa, (L.) Tebonnet; settings: rated 4-5 weeks after treatment
[16] = tested on: TRZAWR (Wheat, Winter, cv Riband); assay: Preemergence herbicidal evaluation; format: in vivo, Triticum aestivum; settings: rated 4-5 weeks after treatment
How it was run: as §2

ZEAMX (Corn, Field) [17] = assay: Preemergence herbicidal evaluation; format: in vivo, Zea mays, L.; settings: rated 4-5 weeks after treatment
[18] = tested on: ECHORC (Echinochloa oryzoides); assay: Flooded paddy, preemergence weed control; format: in vivo, Echinochloa oryzoides (Ard.) Fritsch.; settings: rated 3-4 weeks after treatment, 0-9 rating scale
How it was run: (§3)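 Under paddy conditions, seeds or vegetative propagules go into the top 0.5 cm of silt loam; the soil is then flooded to 1.5–3 cm and kept so. Treated pots stay in a greenhouse; response is rated 0-9 visually versus control.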

CYPIR (Cyperus iria) = assay: Flooded paddy, preemergence weed control; format: in vivo; settings: rated 3-4 weeks after treatment, 0-9 rating scale
How it was run: as §3

[19] = tested on: CYPSE (Cyperus serotinus); assay: Flooded paddy, preemergence weed control; format: in vivo, Rottb.; settings: rated 3-4 weeks after treatment, 0-9 rating scale
How it was run: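 Seeds or propagules were planted 0.5 cm deep in silt loam and flooded to 1.5–3 cm. Compounds in 50/50 v/v aqueous/acetone were pipetted into the flood water at about 0.0080 to 0.1250 kg/ha. After 3–4 weeks in the greenhouse, effect was rated visually on a 0–9 scale versus untreated control.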

[20] = tested on: SAGPY (Sagittaria pygmaea); assay: Flooded paddy, preemergence weed control; format: in vivo, L.; settings: rated 3-4 weeks after treatment, 0-9 rating scale
How it was run: as §3

C#CCOC(=O)COc1ccsc1-c1nsc2ccc(-n3c(=O)cc(C(F)(F)F)n(C)c3=O)cc12 [Compound 39, 2-propynyl [[2-[5-[3,6-dihydro-3-methyl-2,6-dioxo-4-(trifluoromethyl)-1(2H)-pyrimidinyl]-1,2-benzisothiazol-3-yl]-3-thienyl]oxy]acetate]
Postemergence herbicidal rating, ABUTH ([1]; rate 0.0320 kg/ha): 2.0 | Postemergence herbicidal rating, ABUTH ([1]; rate 0.0620 kg/ha): 9.0 | Postemergence herbicidal rating, AMBEL ([2]; rate 0.0320 kg/ha): 3.0 | Postemergence herbicidal rating, AMBEL ([2]; rate 0.0620 kg/ha): 3.0 | Postemergence herbicidal rating, CASOB ([3]; rate 0.0320 kg/ha): 0.0 | Postemergence herbicidal rating, CASOB ([3]; rate 0.0620 kg/ha): 0.0 | Postemergence herbicidal rating, CHEAL ([4]; rate 0.0320 kg/ha): 0.0 | Postemergence herbicidal rating, CHEAL ([4]; rate 0.0620 kg/ha): 4.0 | Postemergence herbicidal rating, GALAP (GALAP (Galium aparine) [5]; rate 0.0320 kg/ha): 0.0 | Postemergence herbicidal rating, GALAP (GALAP (Galium aparine) [5]; rate 0.0620 kg/ha): 1.0 | Postemergence herbicidal rating, IPOHE ([6]; rate 0.0320 kg/ha): 4.0 | Postemergence herbicidal rating, IPOHE ([6]; rate 0.0620 kg/ha): 4.0 | Postemergence herbicidal rating, ECHCG ([7]; rate 0.0320 kg/ha): 0.0 | Postemergence herbicidal rating, ECHCG ([7]; rate 0.0620 kg/ha): 1.0 | Postemergence herbicidal rating, GLXMAW ([8]; rate 0.0320 kg/ha): 5.0 | Postemergence herbicidal rating, GLXMAW ([8]; rate 0.0620 kg/ha): 5.0 | Postemergence herbicidal rating, ZEAMX (ZEAMX (Corn, Field) [9]; rate 0.0320 kg/ha): 4.5 | Postemergence herbicidal rating, ZEAMX (ZEAMX (Corn, Field) [9]; rate 0.0620 kg/ha): 5.0 | Preemergence herbicidal rating AMBEL ([10]; Rate 0.0620 kg/ha): 0.0 | AMBEL preemergence herbicidal rating ([10]; Rate 0.1250 kg/ha): 0.0 | AMBEL preemergence herbicidal rating ([10]; Rate 0.2500 kg/ha): 0.0 | CASOB preemergence herbicidal rating ([11]; Rate 0.1250 kg/ha): 0.0 | CASOB preemergence herbicidal rating ([11]; Rate 0.2500 kg/ha): 0.0 | Preemergence herbicidal rating CHEAL ([12]; Rate 0.0620 kg/ha): 5.0 | CHEAL preemergence herbicidal rating ([12]; Rate 0.1250 kg/ha): 9.0 | CHEAL preemergence herbicidal rating ([12]; Rate 0.2500 kg/ha): 9.0 | Preemergence herbicidal rating GALAP (GALAP (Galium aparine) [13]; Rate 0.0620 kg/ha): 0.0 | GALAP preemergence herbicidal rating (GALAP (Galium aparine) [13]; Rate 0.1250 kg/ha): 0.0 | GALAP preemergence herbicidal rating (GALAP (Galium aparine) [13]; Rate 0.2500 kg/ha): 0.0 | Preemergence herbicidal rating IPOHE ([14]; Rate 0.0620 kg/ha): 0.0 | IPOHE preemergence herbicidal rating ([14]; Rate 0.1250 kg/ha): 0.0 | IPOHE preemergence herbicidal rating ([14]; Rate 0.2500 kg/ha): 1.0 | Preemergence herbicidal rating GLXMAW ([15]; Rate 0.0620 kg/ha): 0.0 | GLXMAW preemergence herbicidal rating ([15]; Rate 0.1250 kg/ha): 1.0 | GLXMAW preemergence herbicidal rating ([15]; Rate 0.2500 kg/ha): 1.0 | Preemergence herbicidal rating ORYSAT (ORYSAT (Rice, Tebonnet); Rate 0.0620 kg/ha): 0.0 | ORYSAT preemergence herbicidal rating (ORYSAT (Rice, Tebonnet); Rate 0.1250 kg/ha): 0.0 | ORYSAT preemergence herbicidal rating (ORYSAT (Rice, Tebonnet); Rate 0.2500 kg/ha): 1.0 | Preemergence herbicidal rating TRZAWR ([16]; Rate 0.0620 kg/ha): 0.0 | TRZAWR preemergence herbicidal rating ([16]; Rate 0.1250 kg/ha): 0.0 | TRZAWR preemergence herbicidal rating ([16]; Rate 0.2500 kg/ha): 1.0 | Preemergence herbicidal rating ZEAMX (ZEAMX (Corn, Field) [17]; Rate 0.0620 kg/ha): 0.0 | ZEAMX preemergence herbicidal rating (ZEAMX (Corn, Field) [17]; Rate 0.1250 kg/ha): 0.0 | ZEAMX preemergence herbicidal rating (ZEAMX (Corn, Field) [17]; Rate 0.2500 kg/ha): 1.0 | herbicidal rating, ECHORC ([18]; rate 0.0320 kg/ha): 0.0 | herbicidal rating, ECHORC ([18]; rate 0.1250 kg/ha): 0.0 | herbicidal rating, CYPIR (CYPIR (Cyperus iria); rate 0.0320 kg/ha): 5.0 | herbicidal rating, CYPIR (CYPIR (Cyperus iria); rate 0.1250 kg/ha): 5.0 | herbicidal rating, CYPSE ([19]; rate 0.0320 kg/ha): 0.0 | herbicidal rating, CYPSE ([19]; rate 0.1250 kg/ha): 0.0 | herbicidal rating, SAGPY ([20]; rate 0.0320 kg/ha): 0.0 | herbicidal rating, SAGPY ([20]; rate 0.1250 kg/ha): 3.0

Cn1c(C(F)(F)F)cc(=O)n(-c2ccc3snc(C4SCCS4)c3c2)c1=O [Compound 24, 3-[3-(1,3-dithiolan-2-yl)-1,2-benzisothiazol-5-yl]-1-methyl-6-(trifluoromethyl)uracil]
Postemergence herbicidal rating, ABUTH ([1]; rate 0.0320 kg/ha): 9.0 | Postemergence herbicidal rating, ABUTH ([1]; rate 0.0620 kg/ha): 9.0 | Postemergence herbicidal rating, AMBEL ([2]; rate 0.0320 kg/ha): 9.0 | Postemergence herbicidal rating, AMBEL ([2]; rate 0.0620 kg/ha): 9.0 | Postemergence herbicidal rating, CASOB ([3]; rate 0.0320 kg/ha): 3.0 | Postemergence herbicidal rating, CASOB ([3]; rate 0.0620 kg/ha): 9.0 | Postemergence herbicidal rating, CHEAL ([4]; rate 0.0320 kg/ha): 9.0 | Postemergence herbicidal rating, CHEAL ([4]; rate 0.0620 kg/ha): 9.0 | Postemergence herbicidal rating, GALAP (GALAP (Galium aparine) [5]; rate 0.0320 kg/ha): 3.0 | Postemergence herbicidal rating, GALAP (GALAP (Galium aparine) [5]; rate 0.0620 kg/ha): 4.0 | Postemergence herbicidal rating, IPOHE ([6]; rate 0.0320 kg/ha): 9.0 | Postemergence herbicidal rating, IPOHE ([6]; rate 0.0620 kg/ha): 9.0 | Postemergence herbicidal rating, ECHCG ([7]; rate 0.0320 kg/ha): 0.0 | Postemergence herbicidal rating, ECHCG ([7]; rate 0.0620 kg/ha): 2.0 | Postemergence herbicidal rating, GLXMAW ([8]; rate 0.0320 kg/ha): 8.0 | Postemergence herbicidal rating, GLXMAW ([8]; rate 0.0620 kg/ha): 8.5 | Postemergence herbicidal rating, ZEAMX (ZEAMX (Corn, Field) [9]; rate 0.0320 kg/ha): 5.5 | Postemergence herbicidal rating, ZEAMX (ZEAMX (Corn, Field) [9]; rate 0.0620 kg/ha): 6.0 | AMBEL preemergence herbicidal rating ([10]; Rate 0.0620 kg/ha): 4.5 | AMBEL preemergence herbicidal rating ([10]; Rate 0.1250 kg/ha): 8.0 | AMBEL preemergence herbicidal rating ([10]; Rate 0.2500 kg/ha): 9.0 | CASOB preemergence herbicidal rating ([11]; Rate 0.0620 kg/ha): 0.0 | CASOB preemergence herbicidal rating ([11]; Rate 0.1250 kg/ha): 0.0 | CASOB preemergence herbicidal rating ([11]; Rate 0.2500 kg/ha): 3.0 | CHEAL preemergence herbicidal rating ([12]; Rate 0.0620 kg/ha): 7.5 | CHEAL preemergence herbicidal rating ([12]; Rate 0.1250 kg/ha): 9.0 | CHEAL preemergence herbicidal rating ([12]; Rate 0.2500 kg/ha): 9.0 | GALAP preemergence herbicidal rating (GALAP (Galium aparine) [13]; Rate 0.0620 kg/ha): 5.0 | GALAP preemergence herbicidal rating (GALAP (Galium aparine) [13]; Rate 0.1250 kg/ha): 5.0 | IPOHE preemergence herbicidal rating ([14]; Rate 0.0620 kg/ha): 2.0 | IPOHE preemergence herbicidal rating ([14]; Rate 0.1250 kg/ha): 6.5 | IPOHE preemergence herbicidal rating ([14]; Rate 0.2500 kg/ha): 7.0 | GLXMAW preemergence herbicidal rating ([15]; Rate 0.0620 kg/ha): 2.0 | GLXMAW preemergence herbicidal rating ([15]; Rate 0.1250 kg/ha): 2.5 | GLXMAW preemergence herbicidal rating ([15]; Rate 0.2500 kg/ha): 4.0 | ORYSAT preemergence herbicidal rating (ORYSAT (Rice, Tebonnet); Rate 0.0620 kg/ha): 0.0 | ORYSAT preemergence herbicidal rating (ORYSAT (Rice, Tebonnet); Rate 0.1250 kg/ha): 3.0 | ORYSAT preemergence herbicidal rating (ORYSAT (Rice, Tebonnet); Rate 0.2500 kg/ha): 6.0 | TRZAWR preemergence herbicidal rating ([16]; Rate 0.0620 kg/ha): 0.0 | TRZAWR preemergence herbicidal rating ([16]; Rate 0.1250 kg/ha): 2.0 | ZEAMX preemergence herbicidal rating (ZEAMX (Corn, Field) [17]; Rate 0.0620 kg/ha): 0.0 | ZEAMX preemergence herbicidal rating (ZEAMX (Corn, Field) [17]; Rate 0.1250 kg/ha): 1.0 | ZEAMX preemergence herbicidal rating (ZEAMX (Corn, Field) [17]; Rate 0.2500 kg/ha): 3.0 | herbicidal rating, ECHORC ([18]; rate 0.0320 kg/ha): 5.0 | herbicidal rating, ECHORC ([18]; rate 0.1250 kg/ha): 7.0 | herbicidal rating, CYPIR (CYPIR (Cyperus iria); rate 0.0320 kg/ha): 0.0 | herbicidal rating, CYPIR (CYPIR (Cyperus iria); rate 0.1250 kg/ha): 5.0 | herbicidal rating, CYPSE ([19]; rate 0.0320 kg/ha): 0.0 | herbicidal rating, CYPSE ([19]; rate 0.1250 kg/ha): 2.0 | herbicidal rating, SAGPY ([20]; rate 0.0320 kg/ha): 0.0 | herbicidal rating, SAGPY ([20]; rate 0.1250 kg/ha): 5.0
